According to publication PMC5126668 (PeerJ, 2016):
Values joined by “and” are separate entries in the source; they are usually repeats but may differ in a detail not shown here. Identical values can stand only once. Like-named read-outs stand apart in the source and are kept apart here.

Columns and labels:
[1] = Toxicokinetics of BAK in rat plasma after a single oral dose; format: in vivo, Sprague–Dawley rats
Protocol: ABT, a broad-spectrum nonspecific CYP inhibitor, was selected as a positive control inhibitor of CYP enzymes. Aristolochic acid A (AA I) was selected as the nephrotoxicity positive control in the study.
The plasma samples were separated by centrifugation at 4000 rpm for 15 min. […] Subsequently, 10 µL of internal standard solution (tanshinone II A, 10 µg/mL) and 0.3 mL of acetonitrile were added to 0.1 mL of plasma or homogenates, and centrifuged at 13,300 rpm for 15 min after 2 min of vortexing. The supernatant was reconstituted in 100 µL of mobile phase after drying under 40 °C nitrogen, the mixture then was vortexed for 5 min and centrifuged at 13,300 rpm for 15 min. Finally, 20 µL of supernatant was injected for HPLC analysis.
The mobile phase consisted of methanol and water with 0.1% formic acid (89:11, v/v) and was supplied at a flow rate of 0.8 mL/min. The detection wavelength was set to 262 nm.

[2] = HK-2 cell viability, MTT assay, with or without co-cultured HLMs; format: cell-based, human; conditions: human; for viability at 4 h, 30 µM: BAK 30 µM; for viability at 4 h, 75 µM: BAK 75 µM; for viability at 4 h, 90 µM: BAK 90 µM; for viability at 4 h, 45 µM: BAK 45 µM; for viability at 4 h, 60 µM: BAK 60 µM
Protocol: (§1) HK-2 cells obtained from Peking Union Medical College were maintained in D/F12 medium containing 10% fetal bovine serum, 2 mM glutamine and 1 × 10^5 U/L penicillin and streptomycin at 37 °C in a 5% CO2 atmosphere. […] The samples containing HLMs were prepared in an ice bath, and three replicates were tested for each dose. In brief, HK-2 cells (100 µL) were seeded at 3 × 10^5cells/mL in 96-well plates. After 12 h, 200 µL of the test compound was added. For the BAK and GA with HLMs group, GA was pre-incubated with NADPH in HLMs for 30 min at 37 °C and then mixed with BAK; for the other groups, all tested compounds except NADPH were mixed, and NADPH was then added to start the metabolic reaction. After 4 h of culture, 100 µL of 0.5 g/L MTT was added, and the cells were cultured for 4 h. Subsequently, 150 µL of 4% isopropanol was added to cells for 15 min at 37 °C, and the absorbance at 570 nm was then read by a microplate reader (Multiskan MK3, Thermo, USA). The relative cell viability (%) was calculated as follows: Mean Absorbance of Sample/Mean Absorbance of Vehicle Control × 100%.

[3] = system: HK-2 cells; experiment: as above; format: cell-based, human; conditions: BAK combined with GA
Protocol: as §1

[4] = system: BAK metabolism in HLMs; experiment: Metabolic elimination of BAK in HLMs and its inhibition by GA (HPLC); format: in vitro ADME, human; conditions: for Remaining percentage of BAK (%) / remaining of BAK (%), single samples: BAK 10 µM; for Remaining percentage of BAK (%): HLMs 0.5 g/L, mean; for remaining of BAK (%), single samples: t=30 min
Protocol: The HLM mixtures were prepared on ice. […] At the end of the incubation (0 or 30 min), 200 µL of methanol-acetonitrile (1:1, V:V) solution containing tanshinone II A (internal standard) was added to terminate the reaction. The mixtures were then vortexed for 2 min followed by centrifugation at 14,500 rpm for 10 min. A 10 µL aliquot of the supernatant was then injected for HPLC analysis. […] RContr is the percentage of BAK remaining in the BAK group.

[5] = Sprague-Dawley, plasma, rat, single oral, BAK 200 mg/kg, with ABT or GA 100 mg/kg where named
[6] = rat, single oral, BAK 200 mg/kg, with ABT or GA 100 mg/kg where named
[7] = with HLM, raw data, read-out: cell viability(%), single values
[8] = HK-2 cells co-cultured with HLMs (0.16 g/L), with HLMs 0.16 g/L, 4 h, mean, read-out: HK-2 Cell viability (%)
[9] = HK-2 cells, without HLMs, without HLMs, 4 h, mean, read-out: HK-2 Cell viability (%)

In the case of `C=C[C@@](C)(/C=C/c1ccc(O)cc1)CCC=C(C)C` [BAK, Bakuchiol], the “BAK concentration in rat plasma, single rats 1-5” value (“BAK concentration in rat plasma” for short) ([1]; 0.083 h after single oral dose) is reported as 19.440 ng/mL and 20.126 ng/mL and 124.551 ng/mL and 203.437 ng/mL and 45.002 ng/mL, the “BAK concentration in rat plasma” value ([1]; 0.500 h after single oral dose) is reported as 298.348 ng/mL and 315.739 ng/mL and 248.132 ng/mL and 249.198 ng/mL and the “BAK concentration in rat plasma” value ([1]; 1.000 h after single oral dose) is reported as 370.910 ng/mL and 622.012 ng/mL and 388.077 ng/mL and 359.422 ng/mL and 237.838 ng/mL. For the same compound, the “BAK concentration in rat plasma” value ([1]; 2.000 h after single oral dose) was 741.835 ng/mL and 1388.336 ng/mL and 509.873 ng/mL and 610.667 ng/mL and 641.059 ng/mL, the “BAK concentration in rat plasma” value ([1]; 4.000 h after single oral dose) was 1167.913 ng/mL and 614.550 ng/mL and 628.766 ng/mL and 924.718 ng/mL and the “BAK concentration in rat plasma” value ([1]; 8.000 h after single oral dose) was 297.448 ng/mL and 580.240 ng/mL and 453.584 ng/mL and 180.567 ng/mL and 336.676 ng/mL. For the same compound, the “BAK concentration in rat plasma” value ([1]; 12.00 h after single oral dose) was 101.667 ng/mL and 221.273 ng/mL and 140.087 ng/mL and 93.481 ng/mL and 214.562 ng/mL, the “BAK concentration in rat plasma” value ([1]; 24.00 h after single oral dose) was 76.407 ng/mL and 58.961 ng/mL and 54.579 ng/mL and 73.723 ng/mL and the Cmax [1, 5] was 887 ± 281 ng/mL. For the same compound, the MRT [1, 5] was 6.79 ± 0.43 h, the Tmax [1, 5] was 3.6 ± 0.89 h and the AUC(0-t) ([1]; Sprague-Dawley, plasma, rat, single oral, BAK 200 mg/kg, with ABT or GA 100 mg/kg where named, read-out: AUC0−24 of BAK) was 7260 ng·h/mL. The concentration at 0.083 h ([1]; Sprague-Dawley, rat, plasma, po, 200 mg/kg, 0.083 h after single oral dose) was 82.5 ng/mL, the concentration at 0.5 h ([1]; Sprague-Dawley, rat, plasma, po, 200 mg/kg, 0.500 h after single oral dose, read-out: BAK concentration in rat plasma, mean) was 273 ng/mL and the concentration at 0.5 h ([1]; Sprague-Dawley, rat, plasma, po, 200 mg/kg, 0.500 h after single oral dose, read-out: BAK concentration in rat plasma, single rats 1-5) was 256 ng/mL. It also gave a concentration at 1 h ([1]; Sprague-Dawley, rat, plasma, po, 200 mg/kg, 1.000 h after single oral dose) of 396 ng/mL, a concentration at 2 h ([1]; Sprague-Dawley, rat, plasma, po, 200 mg/kg, 2.000 h after single oral dose) of 778 ng/mL and a concentration at 4 h ([1]; Sprague-Dawley, rat, plasma, po, 200 mg/kg, 4.000 h after single oral dose, read-out: BAK concentration in rat plasma, mean) of 843 ng/mL. For the same compound, the concentration at 4 h ([1]; Sprague-Dawley, rat, plasma, po, 200 mg/kg, 4.000 h after single oral dose, read-out: BAK concentration in rat plasma, single rats 1-5) was 881 ng/mL, the concentration at 8 h ([1]; Sprague-Dawley, rat, plasma, po, 200 mg/kg, 8.000 h after single oral dose) was 370 ng/mL and the concentration at 12 h ([1]; Sprague-Dawley, rat, plasma, po, 200 mg/kg, 12.00 h after single oral dose) was 154 ng/mL. The concentration at 24 h ([1]; Sprague-Dawley, rat, plasma, po, 200 mg/kg, 24.00 h after single oral dose, read-out: BAK concentration in rat plasma, mean) was 68.1 ng/mL, the concentration at 24 h ([1]; Sprague-Dawley, rat, plasma, po, 200 mg/kg, 24.00 h after single oral dose, read-out: BAK concentration in rat plasma, single rats 1-5) was 76.9 ng/mL and the concentration at 24 h ([1]; Sprague-Dawley, rat, plasma, po, 200 mg/kg, rat, 24 h after single oral dose, read-out: Exposure of BAK, Plasma, mean) was 68.1 ng/g. The concentration at 24 h ([1]; Sprague-Dawley, rat, plasma, po, 200 mg/kg, rat, 24 h after single oral dose, read-out: Exposure of BAK, Plasma, single rats) was 76.9 ng/g, the “Exposure of BAK, Plasma, single rats” value ([1]; rat, 24 h after single oral dose) was 0.0764 µg/g and 0.0590 µg/g and 0.0546 µg/g and 0.0737 µg/g and the “CL of BAK” value [1, 6] was 28.20 ± 7.91 L/h/kg. The “V of BAK” value [1, 6] was 184.2 ± 58.6 L/kg, the “t1∕2 of BAK” value [1, 6] was 4.71 ± 1.56 h and the viability at 4 h, 30 µM [2, 7] was 98.8%. The viability at 4 h, 75 µM [2, 7] was 108%, the viability at 4 h, 90 µM [2, 7] was 88.2% and the viability at 4 h, 30 µM [2, 8] was 104 ± 4.32%. It also gave a viability at 4 h, 45 µM ([2]; HK-2 cells co-cultured with HLMs (0.16 g/L), with HLMs 0.16 g/L, 4 h, mean) of 105 ± 9.39%, a viability at 4 h, 60 µM [2, 8] of 101 ± 9.76% and a viability at 4 h, 75 µM [2, 8] of 109 ± 3.19%. The viability at 4 h, 90 µM [2, 8] was 92.5 ± 2.07%, the viability at 4 h, 60 µM ([2]; HK-2 cells, without HLM, raw data, read-out: cell viability(%), single values) was 80.5% and the viability at 4 h, 30 µM [2, 9] was 97.7 ± 10.7%. For the same compound, the viability at 4 h, 45 µM ([2]; HK-2 cells, without HLMs, 4 h, mean) was 84.6 ± 13.8%, the viability at 4 h, 60 µM [2, 9] was 77.5 ± 4.69% and the viability at 4 h, 75 µM [2, 9] was 55 ± 11.3%. For the same compound, the viability at 4 h, 90 µM [2, 9] was 46.3 ± 12.5%, the “decreases in viability of HK-2 cells” value [3] was 25∼40% and the “30min BAK metabolic percentage (%)” value ([4]; BAK 10 µM alone, HLMs, 30 min) was 36.51%. The “Remaining percentage of BAK (%)” value ([4]; GA 0 µM, 30 min) was 63.49 ± 6.05% and 63.49%, the “Remaining percentage of BAK (%)” value ([4]; GA 12.5 µM, 30 min) was 71.60 ± 6.40% and 71.60% and the “remaining of BAK (%), single samples” value ([4]; GA 12.5 µM) was 64.61% and 73.02% and 77.17%. For the same compound, the “Remaining percentage of BAK (%)” value ([4]; GA 62.5 µM, 30 min) was 80.10 ± 6.81 % and 80.10%, the “remaining of BAK (%), single samples” value ([4]; GA 62.5 µM) was 85.51% and 72.46% and 82.34% and the “remaining of BAK (%), single samples” value ([4]; GA 93.75 µM) was 73.93% and 93.16% and 104.23%. For the same compound, the “Remaining percentage of BAK (%)” value ([4]; GA 125.0 µM, 30 min) was 97.24 ± 1.46 % and 97.24%, the “remaining of BAK (%), single samples” value ([4]; GA 125 µM) was 98.81% and 95.94% and 96.96% and the “remaining of BAK (%), single samples” value ([4]; no GA, HLM 0.5 mg/ml) was 56.87% and 64.87% and 68.72%.
